The record followed here is the NIST ThermoML archive (doi:10.1016/j.jct.2008.10.005).

Numbers after ± are expanded uncertainties.

For series [1] the following is noted: Crystal; DTA.
Series [2] in a line: Molar enthalpy of transition or fusion. The settings on record: Crystal; DSC.

As to `Clc1ccccc1Cl` [1,2-dichlorobenzene], in series [1], the Normal melting temperature is -17.30 ± 0.53 °C. Also, the “Molar enthalpy of transition or fusion” value in series [2] was found to be 2.96 ± 0.203 kcal/mol.

On to `c1ccc2ccccc2c1` [naphthalene], for which, in series [1], the Normal melting temperature amounted to 80.10 ± 0.53 °C. Also, in series [2], the “Molar enthalpy of transition or fusion” value is 4.54 ± 0.215 kcal/mol.

As for `Clc1cccc(Cl)c1` [1,3-dichlorobenzene], in series [1], the Normal melting temperature is -24.90 ± 0.53 °C. The “Molar enthalpy of transition or fusion” value in series [2] was 3.01 ± 0.203 kcal/mol.

With `Clc1ccc(Cl)cc1` [1,4-dichlorobenzene], the Normal melting temperature in series [1] was 53.00 ± 0.53 °C. Also, the “Molar enthalpy of transition or fusion” value in series [2] was found to be 4.35 ± 0.213 kcal/mol.
